Experimental data reported in PubChem BioAssay AID1259411 (Chemical Carcinogenesis Research Information System (CCRIS), 2018).
Active and inactive are the calls of the source. No rule for the calls is given here.

Tested on: rodent carcinogenicity bioassays, tumor incidence
Experiment: CCRIS carcinogenicity studies
Details: Route: INHALATION
How it was run: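 Archive of carcinogenicity, mutagenicity, tumor promotion and tumor inhibition results drawn from journals, NCI reports and other sources, expert-reviewed; covers 1985-2011 and is no longer updated.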

## C=CC=C
Species: MOUSE, Strain/Sex: B6C3F1/FEMALE, Dose: 0, 6.25, 20, 62.5, 200, 625 PPM 6 HR/D 5 D/WK FOR 2 YR (STUDY DURATION: 2 YR), Dose: 0, 6.25, 20, 62.5, 200, 625 PPM 6 HR/D 5 D/WK FOR 2 YR (STUDY DURATION: 2 YR), Tumor Site: Type of Lesion: HARDERIAN GLAND: ADENOMA OR ADENOCARCINOMA, LIVER: HEPATOCELLULAR CARCINOMA, MAMMARY GLAND: ADENOCARCINOMA, OVARIES: GRA, Tumor Site: Type of Lesion: HARDERIAN GLAND: ADENOMA OR ADENOCARCINOMA, LIVER: HEPATOCELLULAR CARCINOMA, MAMMARY GLAND: ADENOCARCINOMA, OVARIES: GRA
  carcinogen call: active; positive
Species: MOUSE, Strain/Sex: B6C3F1/FEMALE, Dose: 0, 6.25, 20, 62.5, 200, 625 PPM 6 HR/D 5 D/WK FOR 2 YR (STUDY DURATION: 2 YR), Dose: 0, 6.25, 20, 62.5, 200, 625 PPM 6 HR/D 5 D/WK FOR 2 YR (STUDY DURATION: 2 YR), Tumor Site: Type of Lesion: HEMATOPOIETIC SYSTEM: LYMPHOCYTIC LYMPHOMA, LYMPHOMA, BLOOD VESSELS: HEMANGIOSARCOMA, LUNG: ALVEOLAR/BRONCHIOLAR TUMOR;, Tumor Site: Type of Lesion: HEMATOPOIETIC SYSTEM: LYMPHOCYTIC LYMPHOMA, LYMPHOMA, BLOOD VESSELS: HEMANGIOSARCOMA, LUNG: ALVEOLAR/BRONCHIOLAR TUMOR
  carcinogen call: active; positive
Species: MOUSE, Strain/Sex: B6C3F1/FEMALE, Dose: 0, 6.25, 20, 62.5, 200, 625 PPM 6 HR/D 5 D/WK FOR 103 WK (STUDY DURATION: 2 YR), Dose: 0, 6.25, 20, 62.5, 200, 625 PPM 6 HR/D 5 D/WK FOR 103 WK (STUDY DURATION: 2 YR), Tumor Site: Type of Lesion: HEART: HEMANGIOSARCOMA, LUNG: ALVEOLAR/BRONCHIOLAR ADENOMA, ADENOCARCINOMA OR CARCINOMA, FORESTOMACH: SQUAMOUS CELL PAPI, Tumor Site: Type of Lesion: HEART: HEMANGIOSARCOMA, LUNG: ALVEOLAR/BRONCHIOLAR ADENOMA, ADENOCARCINOMA OR CARCINOMA, FORESTOMACH: SQUAMOUS CELL PAPI
  carcinogen call: active; positive
Species: MOUSE, Strain/Sex: B6C3F1/FEMALE, Dose: 0, 6.25, 20, 62.5, 200 PPM 6 HR/D 5 D/WK FOR 65 WK (STUDY DURATION: 104 WK), Dose: 0, 6.25, 20, 62.5, 200 PPM 6 HR/D 5 D/WK FOR 65 WK (STUDY DURATION: 104 WK), Tumor Site: Type of Lesion: HEART: HEMANGIOSARCOMA, LUNG: ALVEOLAR/BRONCHIOLAR TUMOR, MAMMARY GLAND: ADENOCARCINOMA, OVARY: GRANULOSA CELL TUMOR, Tumor Site: Type of Lesion: HEART: HEMANGIOSARCOMA, LUNG: ALVEOLAR/BRONCHIOLAR TUMOR, MAMMARY GLAND: ADENOCARCINOMA, OVARY: GRANULOSA CELL TUMOR
  carcinogen call: active; positive
Species: MOUSE, Strain/Sex: B6C3F1/FEMALE, Dose: 0, 1000, 5000, 10000 PPM FOR 2 HR ONCE (STUDY DURATION: 2 YR), Dose: 0, 1000, 5000, 10000 PPM FOR 2 HR ONCE (STUDY DURATION: 2 YR)
  carcinogen call: inactive; negative
Species: MOUSE, Strain/Sex: B6C3F1/FEMALE, Dose: 625, 1250 PPM 6 HR/D 5/WK FOR 61 WK, Tumor Site: Type of Lesion: LYMPHATIC SYSTEM: MALIGNANT LYMPHOMA, LUNG: ALVEOLAR/BRONCHIOLAR ADENOMA, CARCINOMA, MYOCARDIUM: HEMANGIOSARCOMA, FOREST, Tumor Site: Type of Lesion: LYMPHATIC SYSTEM: MALIGNANT LYMPHOMA, LUNG: ALVEOLAR/BRONCHIOLAR ADENOMA, CARCINOMA, MYOCARDIUM: HEMANGIOSARCOMA, FOREST
  carcinogen call: active; positive
Species: MOUSE, Strain/Sex: B6C3F1/MALE, Dose: 0, 6.25, 20, 62.5, 200, 625 PPM 6 HR/D 5 D/WK FOR 2 YR (STUDY DURATION: 2 YR), Dose: 0, 6.25, 20, 62.5, 200, 625 PPM 6 HR/D 5 D/WK FOR 2 YR (STUDY DURATION: 2 YR), Tumor Site: Type of Lesion: HEMATOPOIETIC SYSTEM: LYMPHOCYTIC LYMPHOMA, LYMPHOMA, BLOOD VESSELS: HEMANGIOSARCOMA, LUNG: ALVEOLAR/BRONCHIOLAR TUMOR;, Tumor Site: Type of Lesion: HEMATOPOIETIC SYSTEM: LYMPHOCYTIC LYMPHOMA, LYMPHOMA, BLOOD VESSELS: HEMANGIOSARCOMA, LUNG: ALVEOLAR/BRONCHIOLAR TUMOR
  carcinogen call: active; positive
Species: MOUSE, Strain/Sex: B6C3F1/MALE, Dose: 0, 6.25, 20, 62.5, 200, 625 PPM 6 HR/D 5 D/WK FOR 2 YR (STUDY DURATION: 2 YR), Dose: 0, 6.25, 20, 62.5, 200, 625 PPM 6 HR/D 5 D/WK FOR 2 YR (STUDY DURATION: 2 YR), Tumor Site: Type of Lesion: PREPUTIAL GLAND: ADENOMA OR CARCINOMA, LIVER: HEPATOCELLULAR TUMOR, HARDERIAN GLAND: TUMOR, Tumor Site: Type of Lesion: PREPUTIAL GLAND: ADENOMA OR CARCINOMA, LIVER: HEPATOCELLULAR TUMOR, HARDERIAN GLAND: TUMOR
  carcinogen call: active; positive
Species: MOUSE, Strain/Sex: B6C3F1/MALE, Dose: 0, 6.25, 20, 62.5, 200, 625 PPM 6 HR/D 5 D/WK FOR 103 WK (STUDY DURATION: 2 YR), Dose: 0, 6.25, 20, 62.5, 200, 625 PPM 6 HR/D 5 D/WK FOR 103 WK (STUDY DURATION: 2 YR), Tumor Site: Type of Lesion: HEART: HEMANGIOSARCOMA, LUNG: ALVEOLAR/BRONCHIOLAR ADENOMA, ADENOCARCINOMA OR CARCINOMA, FORESTOMACH: SQUAMOUS CELL PAPI, Tumor Site: Type of Lesion: HEART: HEMANGIOSARCOMA, LUNG: ALVEOLAR/BRONCHIOLAR ADENOMA, ADENOCARCINOMA OR CARCINOMA, FORESTOMACH: SQUAMOUS CELL PAPI
  carcinogen call: active; positive
Species: MOUSE, Strain/Sex: B6C3F1/MALE, Dose: 0, 6.25, 20, 62.5, 200 PPM, 6 HR/D 5 D/WK FOR 65 WK (STUDY DURATION: 104 WK), Dose: 0, 6.25, 20, 62.5, 200 PPM, 6 HR/D 5 D/WK FOR 65 WK (STUDY DURATION: 104 WK), Tumor Site: Type of Lesion: HEART: HEMANGIOSARCOMA, LUNG: ALVEOLAR/BRONCHIOLAR TUMOR, HARDERIAN GLAND: ADENOMA, Tumor Site: Type of Lesion: HEART: HEMANGIOSARCOMA, LUNG: ALVEOLAR/BRONCHIOLAR TUMOR, HARDERIAN GLAND: ADENOMA
  carcinogen call: active; positive
Species: MOUSE, Strain/Sex: B6C3F1/MALE, Dose: 0, 200 PPM 6 HR/D 5 D/WK FOR 40 WK, 625 PPM FOR 13 WK, 312 PPM FOR 52 WK OR 625 PPM FOR 26 WK FOLLOWED BY CONTROL CHAMBE, Dose: 0, 200 PPM 6 HR/D 5 D/WK FOR 40 WK, 625 PPM FOR 13 WK, 312 PPM FOR 52 WK OR 625 PPM FOR 26 WK FOLLOWED BY CONTROL CHAMBE, Tumor Site: Type of Lesion: HEART: HEMANGIOSARCOMA, LUNG: ALVEOLAR/BRONCHIOLAR ADENOMA, ADENOCARCINOMA OR CARCINOMA, FORESTOMACH: SQUAMOUS CELL PAPI, Tumor Site: Type of Lesion: HEART: HEMANGIOSARCOMA, LUNG: ALVEOLAR/BRONCHIOLAR ADENOMA, ADENOCARCINOMA OR CARCINOMA, FORESTOMACH: SQUAMOUS CELL PAPI
  carcinogen call: active; positive
Species: MOUSE, Strain/Sex: B6C3F1/MALE, Dose: 0, 1000, 5000, 10000 PPM FOR 2 HR ONCE (STUDY DURATION: 2 YR), Dose: 0, 1000, 5000, 10000 PPM FOR 2 HR ONCE (STUDY DURATION: 2 YR)
  carcinogen call: inactive; negative
Species: MOUSE, Strain/Sex: B6C3F1/MALE, Dose: 625, 1250 PPM 6 HR/D 5/WK FOR 60 WK, Tumor Site: Type of Lesion: LYMPHATIC SYSTEM: MALIGNANT LYMPHOMA, LUNG: ALVEOLAR/BRONCHIOLAR ADENOMA, CARCINOMA, MYOCARDIUM: HEMANGIOSARCOMA, FOREST, Tumor Site: Type of Lesion: LYMPHATIC SYSTEM: MALIGNANT LYMPHOMA, LUNG: ALVEOLAR/BRONCHIOLAR ADENOMA, CARCINOMA, MYOCARDIUM: HEMANGIOSARCOMA, FOREST
  carcinogen call: active; positive
Species: RAT, Strain/Sex: SPRAGUE-DAWLEY/FEMALE, Dose: 0, 1000, 8000 PPM 6 HR/D 5 D/WK FOR 105 WK (STUDY DURATION: 105 WK), Dose: 0, 1000, 8000 PPM 6 HR/D 5 D/WK FOR 105 WK (STUDY DURATION: 105 WK), Tumor Site: Type of Lesion: UTERUS: SARCOMA, MAMMARY GLAND: ADENOMA, ZYMBAL GLAND: CARCINOMA, THYROID GLAND: FOLLICULAR CELL ADENOMA, Tumor Site: Type of Lesion: UTERUS: SARCOMA, MAMMARY GLAND: ADENOMA, ZYMBAL GLAND: CARCINOMA, THYROID GLAND: FOLLICULAR CELL ADENOMA
  carcinogen call: active; positive
Species: RAT, Strain/Sex: SPRAGUE-DAWLEY/MALE, Dose: 0, 1000, 8000 PPM 6 HR/D 5 D/WK FOR 111 WK (STUDY DURATION: 111 WK), Dose: 0, 1000, 8000 PPM 6 HR/D 5 D/WK FOR 111 WK (STUDY DURATION: 111 WK), Tumor Site: Type of Lesion: PANCREAS: ACINAR CELL ADENOMA, TESTES: LEYDIG CELL TUMOR
  carcinogen call: active; positive
